The values below come from US9273014B2, “Bis(fluoroalkyl)-1,4-benzodiazepinone compounds and prodrugs thereof” (Bristol-Myers Squibb Company, priority 2012, dated 2016).

Data set [1] relates to MDA-MB-157 Human Breast Carcinoma. In words: Human tumor xenograft model in mice, MDA-MB-157. The data set is classed as in vivo. The following applies: oral administration, 10-20 mg/kg, QDx15, 10 day-on-2 day-off-5 day on. How it is done:
(§1) Human Tumor Xenograft Models in Mice
(§2) Mice were fed food and water ad libitum.
(§3) Tumor growth inhibition is calculated as follows: […]
(§4) When death occurred, the day of death was recorded.
Background: In xenograft studies the graft and the host belong to different species.

In data set [2] the test system is human tumor xenografts. The data set is described as follows: Human tumor xenograft models in mice (general statement). In kind it is in vivo. As to conditions: orally administered (PO). As to the method: Mice were fed food and water ad libitum. […] [table] […] When death occurred, the day of death was recorded.
The subject of data set [3] is MDA-MB-468 Human Breast Carcinoma. As to conditions: oral administration, 10-20 mg/kg, QDx15, 10 day-on-2 day-off-5 day on. How it is done:
Treatment of each animal was based on individual body weight. Treated animals were checked daily for treatment related toxicity/mortality. Each group of animals was weighed before the initiation of treatment (Wt1) and then again following the last treatment dose (Wt2). The difference in body weight (Wt2−Wt1) provides a measure of treatment-related toxicity.
Statistical evaluations of data were performed using Gehan's generalized Wilcoxon test. Statistical significance was declared at P<0.05.

A short description of data set [4]: in vitro. As to conditions: human, microsomes, pH 7.4.
The target of data set [5] is human Notch 3 (Homo sapiens, UniProt Q9UM47). The data set is described as follows: Notch-CBF1 Transactivation Assay (Notch 3). As to conditions: HeLa cells co-transfected with truncated Notch 3 and CBF1 luciferase reporter; 18 hours incubation. The data set is classed as cell-based. An excerpt:
Notch-CBF1 Transactivation Assay
The Notch-CBF1 (C-promoter binding factor I) cell based transactivation assay is based on the ability of the released Notch intracellular domain fragments (NICDs) to function as transcription factors in conjunction with CBF1 and other nuclear factors. Luciferase assays were used to measure the antagonism of Notch-CBF1 transcriptional activity. HeLa cervical cancer cells are transiently co-transfected with pCDNA3.1/Hygro plasmids containing truncated Notch 1, Notch 2, Notch 3, or Notch 4 receptors and a PGL3 luciferase reporter vector containing 4 copies of CBF1 binding site. The cells were then tested for Notch-CBF1 activity in the absence or presence of test compounds. HeLa cells, maintained in DMEM (high glucose with HEPES), 1× glutamine/penicillin/streptomycin and 10% Fetal Bovine serum, were transiently transfected in a T175 Flask (4.5×10^6 cells/flask) using the Monster Transfection Kit (Minis #MIR2906) according to manufacturers specifications. Table 9 denotes respective DNA quantity for the transfections.
Assay media (5 μL) containing test compounds in final concentrations ranging from 5 μM to 8.4×10^−5 μM (3 fold serial dilutions) were added to the cells and the cell plates were then incubated for 18 hours at 37° C. and 5% CO2. Control wells contained DMSO vehicle (total counts) or 0.5 μM of an in-house small molecule inhibitor (background counts). Duplicates were used for each sample. Luciferase activity was measured after a 20-minute incubation with 50 μl STEADY-GLO® luciferase reagents according to manufacturer's specifications (Promega, Cat. #E2550) and analyzed by Envision plate reader (PerkinElmer, Boston, Mass.).
The antagonist effect of compounds was expressed as 100×[1−(average sample-average background)/(average total−average background)] where sample is the luciferase activity in the presence of test compound, background is equal to the luciferase activity in the presence of the small molecule inhibitor control and the total is signal induced in DMSO wells.
(In general: In a reporter assay the amount or activity of a reporter protein is the signal.)

For data set [6], the system named is TALL1 Human T-cell acute lymphoblastic leukemia. In words: Human tumor xenograft model in mice, TALL1. The following applies: oral administration, QDx10, LCK = Log Cell Kill. The data set is classed as in vivo. As to the method:
as §1, §2, §3, §4

The nature of data set [7]: human metabolic stability half-life assay. The following applies: microsomes, pH 7.4.
Data set [8] is described as follows: Prodrug evaluation: single-dose pharmacokinetics in rats. As to conditions: rat, oral gavage, dose 3.00 mg/kg.
Method: Male SPRAGUE DAWLEY® rats (250-300 g) were used for the pharmacokinetic studies. Rats were fasted overnight prior to dosing and fed 4 hrs post dose. In each study, groups of animals (N=2-3) received the test compound by oral gavage. Blood samples (˜0.3 mL) were collected from the jugular vein into K2EDTA-containing tubes at 0.5, 1, 3, 5, 7, and 24 h post dose. Plasma samples, obtained by centrifugation at 4° C. (1500-2000× g), were stored at −20° C. until analysis by LC/MS/MS.
The pharmacokinetic parameters were obtained by non-compartmental analysis of plasma concentration (determined by LC/MS/MS) vs. time data (ThermoKinetica Software version 5.0). The peak concentration (Cmax) and time for Cmax, Tmax, were recorded directly from experimental observations. The area under the curve from time zero to the last sampling time (AUC0-t) was calculated using a combination of linear and log trapezoidal summations. The total plasma clearance (CLTp), steady-state volume of distribution (Vss), apparent elimination half-life (t1/2) and mean residence time (MRT) were estimated after IV administration. […] The absolute oral bioavailability F was estimated as the ratio of dose-normalized AUC values following oral and IV doses.

Entries after “also recorded” stand apart in the source; their conditions may differ.

human Notch 3, sequence (Q9UM47 40-2321 limits assumed): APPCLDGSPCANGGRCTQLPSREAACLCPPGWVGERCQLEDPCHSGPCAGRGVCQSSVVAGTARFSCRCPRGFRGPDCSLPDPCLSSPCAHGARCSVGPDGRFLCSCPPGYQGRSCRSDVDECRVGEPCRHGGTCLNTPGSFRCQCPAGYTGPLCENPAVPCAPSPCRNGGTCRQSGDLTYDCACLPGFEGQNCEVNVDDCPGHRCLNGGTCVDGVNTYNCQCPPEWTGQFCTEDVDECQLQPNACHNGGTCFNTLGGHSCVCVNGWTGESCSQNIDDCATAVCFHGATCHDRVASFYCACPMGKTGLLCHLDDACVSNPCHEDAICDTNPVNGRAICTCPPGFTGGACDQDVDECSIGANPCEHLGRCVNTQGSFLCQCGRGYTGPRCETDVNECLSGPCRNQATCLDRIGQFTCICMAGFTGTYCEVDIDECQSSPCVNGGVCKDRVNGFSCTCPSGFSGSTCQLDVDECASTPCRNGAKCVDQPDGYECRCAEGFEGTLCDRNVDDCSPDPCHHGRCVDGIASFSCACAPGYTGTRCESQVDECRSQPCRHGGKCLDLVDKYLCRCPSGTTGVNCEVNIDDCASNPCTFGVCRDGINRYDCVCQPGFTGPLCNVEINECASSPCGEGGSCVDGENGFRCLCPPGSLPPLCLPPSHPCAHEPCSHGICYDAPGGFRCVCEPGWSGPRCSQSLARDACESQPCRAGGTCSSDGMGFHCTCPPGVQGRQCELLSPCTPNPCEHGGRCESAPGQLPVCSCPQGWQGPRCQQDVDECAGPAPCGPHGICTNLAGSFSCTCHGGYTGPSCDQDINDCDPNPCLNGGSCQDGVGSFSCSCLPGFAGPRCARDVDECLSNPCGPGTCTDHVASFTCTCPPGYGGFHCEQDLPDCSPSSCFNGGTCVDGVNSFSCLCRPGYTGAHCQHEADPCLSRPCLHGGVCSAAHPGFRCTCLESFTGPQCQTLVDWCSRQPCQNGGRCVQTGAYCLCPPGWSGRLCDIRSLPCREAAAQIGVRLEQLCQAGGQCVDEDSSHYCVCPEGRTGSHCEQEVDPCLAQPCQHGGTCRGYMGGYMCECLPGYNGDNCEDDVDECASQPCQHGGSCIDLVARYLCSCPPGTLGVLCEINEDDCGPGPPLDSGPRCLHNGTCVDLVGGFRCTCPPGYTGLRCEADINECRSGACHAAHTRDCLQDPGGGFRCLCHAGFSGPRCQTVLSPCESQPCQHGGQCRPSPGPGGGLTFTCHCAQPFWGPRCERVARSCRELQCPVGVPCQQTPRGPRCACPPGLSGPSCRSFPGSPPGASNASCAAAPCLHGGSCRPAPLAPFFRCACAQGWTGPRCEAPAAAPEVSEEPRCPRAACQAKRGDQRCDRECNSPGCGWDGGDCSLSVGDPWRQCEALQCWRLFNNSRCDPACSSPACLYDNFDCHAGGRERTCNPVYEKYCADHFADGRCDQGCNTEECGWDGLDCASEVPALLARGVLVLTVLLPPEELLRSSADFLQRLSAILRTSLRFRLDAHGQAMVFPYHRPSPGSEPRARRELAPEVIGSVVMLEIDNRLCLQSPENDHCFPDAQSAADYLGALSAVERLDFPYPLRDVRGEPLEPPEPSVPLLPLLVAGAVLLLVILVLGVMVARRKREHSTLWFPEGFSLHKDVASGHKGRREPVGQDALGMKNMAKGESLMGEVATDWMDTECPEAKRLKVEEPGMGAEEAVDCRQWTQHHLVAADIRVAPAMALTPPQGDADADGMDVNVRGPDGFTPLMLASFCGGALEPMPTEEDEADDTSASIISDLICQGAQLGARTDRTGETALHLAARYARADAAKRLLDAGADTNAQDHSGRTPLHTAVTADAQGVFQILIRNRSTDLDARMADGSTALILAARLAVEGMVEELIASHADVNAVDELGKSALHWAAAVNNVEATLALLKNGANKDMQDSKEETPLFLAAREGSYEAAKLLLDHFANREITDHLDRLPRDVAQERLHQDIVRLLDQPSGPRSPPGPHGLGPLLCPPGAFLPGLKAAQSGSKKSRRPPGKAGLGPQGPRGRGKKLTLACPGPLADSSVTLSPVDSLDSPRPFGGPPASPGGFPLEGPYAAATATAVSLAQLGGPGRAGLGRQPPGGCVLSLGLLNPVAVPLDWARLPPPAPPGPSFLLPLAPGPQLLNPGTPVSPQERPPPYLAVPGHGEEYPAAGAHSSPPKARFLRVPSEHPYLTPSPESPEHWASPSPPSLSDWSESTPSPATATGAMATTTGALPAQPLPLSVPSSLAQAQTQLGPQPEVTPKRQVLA

The term half-life denotes the time in which the quantity being followed falls by half. One may read the IC50 as the midpoint of a concentration-inhibition curve. On to `Cc1cccc2c1NC(=O)[C@@H](NC(=O)[C@H](CCC(F)(F)F)[C@H](CCC(F)(F)F)C(N)=O)N=C2c1cccc(F)c1` [Example 1, (2R,3S)—N-((3S)-5-(3-Fluorophenyl)-9-methyl-2-oxo-2,3-dihydro-1H-1,4-benzodiazepin-3-yl)-2,3-bis(3,3,3-trifluoropropyl)succinamide], for which, in data set [1], the “Antitumor Activity MDA-MB-157 (% TGI)” value came out at 91%. Also, in data set [2], the “antitumor activity in human tumor xenografts implanted in mice” value is “exhibited antitumor activity; also recorded: showed antitumor activity”. Moreover, the “Antitumor Activity MDA-MB-468 (% TGI)” value in data set [3] is 98%. Also, in data set [4], the half-life at 0.5 µM is 1.72 h. Further, the IC50 in data set [5] amounted to 8.5 nM. Further, the “Antitumor Activity TALL1 (LCK)” value in data set [6] (10-20 mg/kg) is listed as more than 4.3.

Turning to `CC(C)c1cccc2c1NC(=O)[C@@H](NC(=O)[C@H](CCC(F)(F)F)[C@H](CCC(F)(F)F)C(N)=O)N=C2c1cccc(Cl)c1` [Example 3, (2R,3S)—N-((3S)-5-(3-Chlorophenyl)-9-isopropyl-2-oxo-2,3-dihydro-1H-1,4-benzodiazepin-3-yl)-2,3-bis(3,3,3-trifluoropropyl)succinamide], the “antitumor activity in human tumor xenografts implanted in mice” value in data set [2] is recorded as “showed antitumor activity”. This compound also yielded a half-life in data set [4] of 1.22 h. The IC50 in data set [5] was determined as 1.9 nM. Besides, in data set [6] (10 mg/kg), the “Antitumor Activity TALL1 (LCK)” value is listed as 4.0.

In turn, `Cc1cccc2c1NC(=O)[C@@H](NC(=O)[C@H](CCC(F)(F)F)[C@H](CCC(F)(F)F)C(N)=O)N=C2c1ccccc1` [Example 23, (2R,3S)—N-((3S)-9-Methyl-2-oxo-5-phenyl-2,3-dihydro-1H-1,4-benzodiazepin-3-yl)-2,3-bis(3,3,3-trifluoropropyl)succinamide] returned a half-life in data set [4] of 1.68 h. The compound also had an IC50 in data set [5] of 8.3 nM.

`NC(=O)[C@@H](CCC(F)(F)F)[C@@H](CCC(F)(F)F)C(=O)N[C@H]1N=C(c2ccccc2)c2cccc(C3CC3)c2NC1=O` [Example 24, (2R,3S)—N-((3S)-9-Cyclopropyl-2-oxo-5-phenyl-2,3-dihydro-1H-1,4-benzodiazepin-3-yl)-2,3-bis(3,3,3-trifluoropropyl)succinamide]: the half-life in data set [4] was 1.03 h. Further, the IC50 in data set [5] came out at 2.1 nM.

`NC(=O)[C@@H](CCC(F)(F)F)[C@@H](CCC(F)(F)F)C(=O)N[C@H]1N=C(c2cccc(C3CC3)c2)c2cccc(Cl)c2NC1=O` [Example 25, (2R,3S)—N-((3S)-9-Chloro-5-(3-cyclopropylphenyl)-2-oxo-2,3-dihydro-1H-1,4-benzodiazepin-3-yl)-2,3-bis(3,3,3-trifluoropropyl)succinamide] came in with a half-life in data set [4] of more than 2 h. This compound displayed an IC50 in data set [5] of 2.9 nM.

Compound `COc1cccc2c1NC(=O)[C@@H](NC(=O)[C@H](CCC(F)(F)F)[C@H](CCC(F)(F)F)C(N)=O)N=C2c1cccc(Cl)c1` [Example 26, (2R,3S)—N-((3S)-5-(3-Chlorophenyl)-9-methoxy-2-oxo-2,3-dihydro-1H-1,4-benzodiazepin-3-yl)-2,3-bis(3,3,3-trifluoropropyl)succinamide] displayed a half-life in data set [4] of 1.37 h. The same compound gave an IC50 in data set [5] of 3.4 nM.

In turn, `COc1cccc2c1NC(=O)[C@@H](NC(=O)[C@H](CCC(F)(F)F)[C@H](CCC(F)(F)F)C(N)=O)N=C2c1ccc(Cl)cc1` [Example 27, (2R,3S)—N-((3S)-5-(4-Chlorophenyl)-9-methoxy-2-oxo-2,3-dihydro-1H-1,4-benzodiazepin-3-yl)-2,3-bis(3,3,3-trifluoropropyl)succinamide] returned a half-life at 0.5 µM in data set [7] of 1.92 h.

In data set [4], `Cc1cccc(C2=N[C@H](NC(=O)[C@H](CCC(F)(F)F)[C@H](CCC(F)(F)F)C(N)=O)C(=O)Nc3c(Cl)cccc32)c1` [Example 28, (2R,3S)—N-((3S)-9-Chloro-5-(3-methylphenyl)-2-oxo-2,3-dihydro-1H-1,4-benzodiazepin-3-yl)-2,3-bis(3,3,3-trifluoropropyl)succinamide] showed a half-life of 1.63 h. This compound also showed an IC50 in data set [5] of 7.2 nM.

Compound `Cc1ccccc1C1=N[C@H](NC(=O)[C@H](CCC(F)(F)F)[C@H](CCC(F)(F)F)C(N)=O)C(=O)Nc2ccccc21` [Example 31, (2R,3S)—N-((3S)-5-(2-Methylphenyl)-2-oxo-2,3-dihydro-1H-1,4-benzodiazepin-3-yl)-2,3-bis(3,3,3-trifluoropropyl)succinamide] returned a half-life in data set [4] of 1.67 h. The IC50 in data set [5] worked out at 4.6 nM.

Take `COc1cccc2c1NC(=O)[C@@H](NC(=O)[C@H](CCC(F)(F)F)[C@H](CCC(F)(F)F)C(N)=O)N=C2c1ccc(C(F)(F)F)cn1` [Example 33, (2R,3S)—N-((3S)-9-Methoxy-2-oxo-5-(5-(trifluoromethyl)-2-pyridinyl)-2,3-dihydro-1H-1,4-benzodiazepin-3-yl)-2,3-bis(3,3,3-trifluoropropyl)succinamide]: the half-life in data set [4] was determined as 1.37 h. The compound further came in with an IC50 in data set [5] of 7.4 nM.

As for `Cc1ccc(C2=N[C@H](NC(=O)[C@H](CCC(F)(F)F)[C@H](CCC(F)(F)F)C(N)=O)C(=O)Nc3ccccc32)cc1` [Example 36, (2R,3S)—N-((3S)-5-(4-Methylphenyl)-2-oxo-2,3-dihydro-1H-1,4-benzodiazepin-3-yl)-2,3-bis(3,3,3-trifluoropropyl)succinamide], in data set [4], the half-life is more than 2 h. This compound also showed an IC50 in data set [5] of 3 nM.

Turning to `NC(=O)[C@@H](CCC(F)(F)F)[C@@H](CCC(F)(F)F)C(=O)N[C@H]1N=C(c2cccc(F)c2)c2cccc(CO)c2NC1=O` [Example 37, (2R,3S)—N-((3S)-5-(3-Fluorophenyl)-9-(hydroxymethyl)-2-oxo-2,3-dihydro-1H-1,4-benzodiazepin-3-yl)-2,3-bis(3,3,3-trifluoropropyl)succinamide], the half-life in data set [4] was determined as 1.02 h. In data set [5], this compound had an IC50 of 9.3 nM.

For `Cc1cccc2c1N(COC(=O)Cc1ccc(OP(=O)(O)O)cc1)C(=O)[C@@H](NC(=O)[C@H](CCC(F)(F)F)[C@H](CCC(F)(F)F)C(N)=O)N=C2c1cccc(F)c1` [Example 43, ((3S)-3-(((2R,3S)-3-Carbamoyl-6,6,6-trifluoro-2-(3,3,3-trifluoropropyl)hexanoyl)amino)-5-(3-fluorophenyl)-9-methyl-2-oxo-2,3-dihydro-1H-1,4-benzodiazepin-1-yl)methyl(4-(phosphonooxy)phenyl)acetate], in data set [8], the “% Relative Bioavailability to Example 1” value is 35% and the “AUC0-24 h of Example 1 after Administration of Prodrug” value amounted to 0.193 µM·h.
